Calls of active or inactive are those of the source.
Tests used:
Coagulation factor XII [1] = target: T1, Coagulation factor XII (Homo sapiens, UniProt P00748); experiment: activated coagulation factor XII inhibitor potency, concentration-effect curve, cell-free (AID 716); type: functional
T1 sequence (P00748 whole entry): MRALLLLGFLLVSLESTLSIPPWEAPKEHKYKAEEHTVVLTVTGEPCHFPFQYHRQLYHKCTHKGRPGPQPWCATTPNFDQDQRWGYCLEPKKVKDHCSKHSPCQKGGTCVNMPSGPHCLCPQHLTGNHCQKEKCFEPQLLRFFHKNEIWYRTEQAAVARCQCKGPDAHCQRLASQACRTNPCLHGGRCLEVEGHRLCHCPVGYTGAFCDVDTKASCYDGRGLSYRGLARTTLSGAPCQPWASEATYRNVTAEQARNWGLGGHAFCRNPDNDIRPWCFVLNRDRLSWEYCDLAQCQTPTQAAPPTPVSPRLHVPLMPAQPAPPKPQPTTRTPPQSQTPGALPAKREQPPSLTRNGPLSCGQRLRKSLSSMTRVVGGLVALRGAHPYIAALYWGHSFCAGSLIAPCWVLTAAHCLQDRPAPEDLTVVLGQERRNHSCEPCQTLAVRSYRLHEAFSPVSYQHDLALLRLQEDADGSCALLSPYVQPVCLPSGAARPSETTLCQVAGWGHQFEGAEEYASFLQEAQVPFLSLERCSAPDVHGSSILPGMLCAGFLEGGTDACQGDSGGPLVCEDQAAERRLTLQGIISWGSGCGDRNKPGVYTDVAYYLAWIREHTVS

H4 = experiment: Luminescence Cell-Based Dose Response HTS to Identify Activators of 5'UTR Stem-Loop Driven Prion Protein mRNA Translation in H4 Neuroglioblastoma Cells. [Related pubchem assays: 1829 (Project Summary), 1814 (Primary HTS)]; type: functional; details: Homo sapiens
Coagulation factor XII [2] = target: T1, Coagulation factor XII; experiment: Factor XIIa Dose Response Confirmation from Single Well HTS. [Related pubchem assays (depositor defined):AID701]; type: functional
[3] = target: Envelope glycoprotein gp160 (Human immunodeficiency virus 1, UniProt Q6QLK5); experiment: cell-free HIV fusion peptide-binding blockers – biochemical, uHTS, fluorescence dequenching, […] (AID 1986)
[4] = target: T2, Replicative DNA helicase DnaB (Mycobacterium tuberculosis, UniProt P9WMR3); experiment: DnaB intein splicing inhibitors, dose response, biochemical, cell-free fluorescence (AID 449749); type: functional
T2 sequence (P9WMR3 whole entry): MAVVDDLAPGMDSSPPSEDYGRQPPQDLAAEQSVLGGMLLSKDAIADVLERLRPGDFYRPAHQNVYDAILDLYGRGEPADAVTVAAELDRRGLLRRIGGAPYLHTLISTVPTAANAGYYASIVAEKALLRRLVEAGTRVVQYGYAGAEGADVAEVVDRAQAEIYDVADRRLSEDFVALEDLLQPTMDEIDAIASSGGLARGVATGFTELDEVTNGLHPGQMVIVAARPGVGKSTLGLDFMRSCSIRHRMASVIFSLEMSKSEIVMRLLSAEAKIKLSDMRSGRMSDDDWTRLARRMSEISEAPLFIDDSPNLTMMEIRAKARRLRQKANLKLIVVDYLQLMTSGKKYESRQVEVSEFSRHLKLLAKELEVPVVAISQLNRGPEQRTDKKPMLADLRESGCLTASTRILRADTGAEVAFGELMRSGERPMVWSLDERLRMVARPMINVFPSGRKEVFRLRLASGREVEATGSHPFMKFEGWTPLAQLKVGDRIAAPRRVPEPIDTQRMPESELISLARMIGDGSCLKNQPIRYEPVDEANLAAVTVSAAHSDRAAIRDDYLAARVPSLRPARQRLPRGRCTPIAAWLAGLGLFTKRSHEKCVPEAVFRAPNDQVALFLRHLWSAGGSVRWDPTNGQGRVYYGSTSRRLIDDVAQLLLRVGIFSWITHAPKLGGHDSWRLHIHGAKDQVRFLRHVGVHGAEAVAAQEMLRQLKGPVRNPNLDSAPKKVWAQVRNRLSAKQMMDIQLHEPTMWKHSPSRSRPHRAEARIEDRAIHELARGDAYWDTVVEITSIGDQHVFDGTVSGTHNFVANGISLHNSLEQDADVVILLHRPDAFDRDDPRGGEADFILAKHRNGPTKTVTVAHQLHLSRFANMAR

[5] = Intein inhibitors as potential Tuberculosis drugs, a cytotoxicity screen. [Related pubchem assays (depositor defined):AID2221, AID2223, AID434968, AID435010, AID449749, AID449750, AID489010]; type: functional
Fatty acid synthase [6] = target: T3, Fatty acid synthase (Homo sapiens, UniProt P49327); experiment: inhibition of human FAS-TE enzyme activity – biochemical, endpoint fluorescence intensity, uHTS hits, dose response (AID 624327); type: functional;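 note: fluorescence from hydrolysis of an O-methyl fluorescein acyl ester substrate by the enzyme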
[7] = target: 72 kDa type IV collagenase (Homo sapiens, UniProt P08253); experiment: Dose Response validation of uHTS RPN11 inhibitor hits using a MMP-2 Fluorescence assay.; type: functional
[8] = system: Streptococcus sp. 'group A'; experiment: Streptococcus pyogenes SK(-)GAS viability under kanamycin – luminescence, BacTiterGlo, confirmation, counter-screen for streptokinase expression inhibitor project, dose response (AID 1900); type: functional, organism-based
[9] = target: 26S proteasome non-ATPase regulatory subunit 14 (Homo sapiens, UniProt O00487); experiment: inhibition of proteasome subunit RPN11 – biochemical, fluorescence polarization, uHTS hits, confirmation (AID 602368); type: functional
Streptococcus = experiment: GAS UMAA2166 growth inhibition – luminescence, BacTiterGlo, counter-screen for streptokinase expression inhibitor project, dose response (AID 1915); type: functional, organism-based;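 note: potency for reduction of bacterial viability or growth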
Fatty acid synthase [10] = target: T3, Fatty acid synthase; experiment: inhibition of human FAS-TE enzyme activity – biochemical, kinetic fluorescence intensity, dose response (AID 624326); type: functional;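 note: rate of fluorescence rise from hydrolysis of a fluorogenic O-methyl fluorescein ester substrate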
Protein RecA = target: T4, Protein RecA (Mycobacterium tuberculosis, UniProt P9WHJ3); experiment: Fluorescence Cell-Free Homogeneous Dose Retest to Identify Inhibitors of RecA-Intein Splicing Activity. [Related pubchem assays (depositor defined):AID2097, AID2223, AID489010, AID492950]; type: functional
T4 sequence (P9WHJ3 whole entry): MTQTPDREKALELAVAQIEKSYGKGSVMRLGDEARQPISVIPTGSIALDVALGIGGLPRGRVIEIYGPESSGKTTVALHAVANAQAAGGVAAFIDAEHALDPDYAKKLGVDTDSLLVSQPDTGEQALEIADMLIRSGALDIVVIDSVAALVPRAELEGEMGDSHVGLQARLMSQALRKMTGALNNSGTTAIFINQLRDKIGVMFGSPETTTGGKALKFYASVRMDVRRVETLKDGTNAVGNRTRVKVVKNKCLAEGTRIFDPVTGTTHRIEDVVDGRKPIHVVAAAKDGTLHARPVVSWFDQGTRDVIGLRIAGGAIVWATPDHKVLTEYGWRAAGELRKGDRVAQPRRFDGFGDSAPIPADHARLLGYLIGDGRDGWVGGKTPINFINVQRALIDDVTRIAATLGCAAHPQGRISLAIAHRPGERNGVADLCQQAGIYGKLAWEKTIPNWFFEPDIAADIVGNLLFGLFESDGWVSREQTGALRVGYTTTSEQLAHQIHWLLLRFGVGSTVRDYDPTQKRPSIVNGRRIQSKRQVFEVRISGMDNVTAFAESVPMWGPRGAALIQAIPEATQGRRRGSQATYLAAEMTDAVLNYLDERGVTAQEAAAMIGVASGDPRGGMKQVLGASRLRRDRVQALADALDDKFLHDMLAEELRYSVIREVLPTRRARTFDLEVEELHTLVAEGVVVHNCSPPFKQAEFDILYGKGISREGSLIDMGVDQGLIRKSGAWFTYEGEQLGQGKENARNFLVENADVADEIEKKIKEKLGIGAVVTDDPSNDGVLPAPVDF

Prothrombin = Prothrombin (Bos taurus, UniProt P00735); experiment: thrombin protease inhibitors – biochemical, fluorescence polarization, uHTS hits, dose response (AID 602369); type: functional
[11] = CCR5-tropic HIV-1 fusion blockers – cell-based, CCR5-tropic Env, dose response (AID 2279); type: functional
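Throughout, for CC50: cells exposed to compound for 72 hours before luminescence readout.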

T3 sequence (P49327 whole entry): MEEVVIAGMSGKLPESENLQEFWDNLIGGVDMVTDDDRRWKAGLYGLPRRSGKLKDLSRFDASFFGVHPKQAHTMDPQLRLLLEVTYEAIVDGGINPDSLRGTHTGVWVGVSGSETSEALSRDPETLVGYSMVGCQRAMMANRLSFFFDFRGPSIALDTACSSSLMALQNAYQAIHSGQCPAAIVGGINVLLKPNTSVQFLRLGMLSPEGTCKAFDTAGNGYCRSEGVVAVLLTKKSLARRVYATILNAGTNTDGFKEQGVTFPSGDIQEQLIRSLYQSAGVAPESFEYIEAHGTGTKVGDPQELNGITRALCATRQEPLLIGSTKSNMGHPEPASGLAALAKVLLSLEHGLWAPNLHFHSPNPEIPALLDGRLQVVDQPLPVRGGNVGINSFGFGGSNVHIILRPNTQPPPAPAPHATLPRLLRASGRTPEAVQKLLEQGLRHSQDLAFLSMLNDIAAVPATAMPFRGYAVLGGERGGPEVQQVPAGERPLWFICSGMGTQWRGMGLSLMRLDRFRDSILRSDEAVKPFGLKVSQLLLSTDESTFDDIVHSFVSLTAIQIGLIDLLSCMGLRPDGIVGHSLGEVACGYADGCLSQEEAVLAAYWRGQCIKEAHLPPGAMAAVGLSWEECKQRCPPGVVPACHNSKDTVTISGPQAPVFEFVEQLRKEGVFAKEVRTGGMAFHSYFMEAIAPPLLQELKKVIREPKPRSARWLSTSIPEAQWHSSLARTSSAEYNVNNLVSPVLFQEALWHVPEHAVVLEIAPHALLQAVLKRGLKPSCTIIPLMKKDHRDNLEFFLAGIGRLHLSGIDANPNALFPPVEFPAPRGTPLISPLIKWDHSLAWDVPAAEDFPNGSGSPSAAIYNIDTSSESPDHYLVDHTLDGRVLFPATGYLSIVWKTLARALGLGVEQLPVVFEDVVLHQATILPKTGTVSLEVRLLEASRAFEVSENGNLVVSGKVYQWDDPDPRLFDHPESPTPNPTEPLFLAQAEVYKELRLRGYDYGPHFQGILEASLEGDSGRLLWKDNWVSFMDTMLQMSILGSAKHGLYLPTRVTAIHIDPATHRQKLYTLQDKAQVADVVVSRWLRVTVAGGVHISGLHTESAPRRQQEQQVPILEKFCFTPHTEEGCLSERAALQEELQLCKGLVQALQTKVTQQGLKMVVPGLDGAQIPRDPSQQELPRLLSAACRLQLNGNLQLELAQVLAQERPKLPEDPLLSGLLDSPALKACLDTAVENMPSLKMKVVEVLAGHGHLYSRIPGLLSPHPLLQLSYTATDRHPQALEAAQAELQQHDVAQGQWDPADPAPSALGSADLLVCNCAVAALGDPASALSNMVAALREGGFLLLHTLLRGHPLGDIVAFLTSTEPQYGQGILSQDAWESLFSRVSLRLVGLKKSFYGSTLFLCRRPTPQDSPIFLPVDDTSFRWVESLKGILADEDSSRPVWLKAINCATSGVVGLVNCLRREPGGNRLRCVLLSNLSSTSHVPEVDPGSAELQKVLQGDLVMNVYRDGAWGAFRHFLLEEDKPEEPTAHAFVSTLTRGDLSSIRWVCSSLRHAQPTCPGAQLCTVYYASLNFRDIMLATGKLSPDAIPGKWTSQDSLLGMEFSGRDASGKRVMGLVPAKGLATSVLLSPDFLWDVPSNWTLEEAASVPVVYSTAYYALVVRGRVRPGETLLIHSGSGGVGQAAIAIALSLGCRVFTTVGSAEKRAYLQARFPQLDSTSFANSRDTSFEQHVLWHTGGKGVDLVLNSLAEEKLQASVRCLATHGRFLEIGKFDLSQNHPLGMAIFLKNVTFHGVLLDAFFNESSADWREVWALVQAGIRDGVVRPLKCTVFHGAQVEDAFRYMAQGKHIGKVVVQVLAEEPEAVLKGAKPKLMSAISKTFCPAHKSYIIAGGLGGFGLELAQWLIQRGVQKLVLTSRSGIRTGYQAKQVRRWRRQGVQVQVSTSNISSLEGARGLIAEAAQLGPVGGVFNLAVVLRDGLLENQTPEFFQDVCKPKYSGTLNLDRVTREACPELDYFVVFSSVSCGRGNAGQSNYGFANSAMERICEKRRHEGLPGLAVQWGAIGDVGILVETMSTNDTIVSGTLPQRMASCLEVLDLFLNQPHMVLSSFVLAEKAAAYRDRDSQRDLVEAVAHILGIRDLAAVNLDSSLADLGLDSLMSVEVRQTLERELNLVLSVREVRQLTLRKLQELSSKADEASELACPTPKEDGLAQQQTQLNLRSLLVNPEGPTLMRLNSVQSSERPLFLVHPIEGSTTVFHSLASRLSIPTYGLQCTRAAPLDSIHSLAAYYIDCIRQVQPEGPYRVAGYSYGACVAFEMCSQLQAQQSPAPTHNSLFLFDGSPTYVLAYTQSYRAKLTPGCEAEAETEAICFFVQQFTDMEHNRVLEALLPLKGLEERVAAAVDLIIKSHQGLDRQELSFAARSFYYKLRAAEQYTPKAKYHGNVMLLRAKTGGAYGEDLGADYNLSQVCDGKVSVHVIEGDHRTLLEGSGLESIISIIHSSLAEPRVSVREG
Sequence of 72 kDa type IV collagenase (P08253 whole entry): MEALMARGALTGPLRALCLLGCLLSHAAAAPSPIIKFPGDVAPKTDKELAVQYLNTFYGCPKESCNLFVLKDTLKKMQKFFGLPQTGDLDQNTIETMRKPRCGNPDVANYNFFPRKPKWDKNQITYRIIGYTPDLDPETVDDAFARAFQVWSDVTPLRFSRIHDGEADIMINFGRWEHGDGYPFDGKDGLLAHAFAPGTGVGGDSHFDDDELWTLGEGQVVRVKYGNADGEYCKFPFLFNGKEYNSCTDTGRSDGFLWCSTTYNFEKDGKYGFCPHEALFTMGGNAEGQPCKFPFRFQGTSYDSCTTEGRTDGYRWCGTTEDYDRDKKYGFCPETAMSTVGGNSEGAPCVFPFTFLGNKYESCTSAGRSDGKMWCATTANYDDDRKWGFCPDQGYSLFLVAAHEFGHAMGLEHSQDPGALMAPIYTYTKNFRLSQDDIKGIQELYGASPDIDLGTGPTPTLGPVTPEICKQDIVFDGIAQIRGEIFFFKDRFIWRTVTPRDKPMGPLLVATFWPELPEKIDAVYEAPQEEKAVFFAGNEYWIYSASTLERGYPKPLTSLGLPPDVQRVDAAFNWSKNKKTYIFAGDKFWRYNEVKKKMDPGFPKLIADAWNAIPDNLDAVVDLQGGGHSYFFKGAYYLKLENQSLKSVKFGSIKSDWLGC
Sequence of 26S proteasome non-ATPase regulatory subunit 14 (O00487 whole entry): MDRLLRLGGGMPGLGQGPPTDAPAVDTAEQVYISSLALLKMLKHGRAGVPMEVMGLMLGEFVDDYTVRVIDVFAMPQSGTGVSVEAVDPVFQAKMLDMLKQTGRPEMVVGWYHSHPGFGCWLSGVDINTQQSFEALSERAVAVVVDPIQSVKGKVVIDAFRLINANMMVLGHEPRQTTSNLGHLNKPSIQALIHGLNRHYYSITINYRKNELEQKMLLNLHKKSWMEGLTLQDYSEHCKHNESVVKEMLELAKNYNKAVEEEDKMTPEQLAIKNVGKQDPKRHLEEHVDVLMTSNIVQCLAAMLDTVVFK
Sequence of Envelope glycoprotein gp160 (Q6QLK5 whole entry, the tested form may be a part): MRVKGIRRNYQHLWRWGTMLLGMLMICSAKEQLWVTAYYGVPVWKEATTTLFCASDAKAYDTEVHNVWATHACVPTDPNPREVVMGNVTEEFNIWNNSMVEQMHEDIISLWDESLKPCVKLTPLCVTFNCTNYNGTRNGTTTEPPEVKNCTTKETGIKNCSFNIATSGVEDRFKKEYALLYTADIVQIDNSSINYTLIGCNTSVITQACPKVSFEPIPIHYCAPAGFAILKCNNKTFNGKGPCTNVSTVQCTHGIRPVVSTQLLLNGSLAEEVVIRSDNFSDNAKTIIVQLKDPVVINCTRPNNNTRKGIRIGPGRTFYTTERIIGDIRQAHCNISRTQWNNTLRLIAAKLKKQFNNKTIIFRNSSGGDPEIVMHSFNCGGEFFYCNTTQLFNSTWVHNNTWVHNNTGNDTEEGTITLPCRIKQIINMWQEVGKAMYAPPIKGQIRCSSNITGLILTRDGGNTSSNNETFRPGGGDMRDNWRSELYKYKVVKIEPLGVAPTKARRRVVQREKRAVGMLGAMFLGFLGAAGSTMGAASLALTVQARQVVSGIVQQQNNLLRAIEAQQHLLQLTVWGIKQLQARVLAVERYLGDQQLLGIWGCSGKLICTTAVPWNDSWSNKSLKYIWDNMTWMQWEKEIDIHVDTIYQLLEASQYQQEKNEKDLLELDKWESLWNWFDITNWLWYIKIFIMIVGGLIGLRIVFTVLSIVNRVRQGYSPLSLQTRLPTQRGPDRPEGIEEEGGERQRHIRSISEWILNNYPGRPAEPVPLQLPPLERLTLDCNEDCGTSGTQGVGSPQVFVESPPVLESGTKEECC

Structure (SMILES): COc1ccc(Cn2c(C3CC3)nc3ccc(NC(=O)C4CC4)cc3c2=O)cc1
- IC50 (Coagulation factor XII [1]): > 50 µM (inactive)
- EC50 (H4): 0.679 µM (active)

Structure (SMILES): O=C(c1ccc2c(c1)OCO2)N1CCN(c2ccc(F)cc2)CC1
- IC50 (Coagulation factor XII [2]): > 50 µM (inactive)

Structure (SMILES): O=C1NC(=S)N(C2CCCCC2)C(=O)/C1=C/NNC(=O)c1ccccc1O
- IC50 [3]: 17.7 µM (active)
- AC50 [4]: 3.25 µM (active)
- CC50 [5]: 31.2 µM (active)
- IC50 (Fatty acid synthase [6]): 31.1 µM (inactive)
- IC50 [7]: > 100 µM (inactive)
- EC50 [8]: 0.725 µM (active)
- IC50 [9]: 36.7 µM (active)
- EC50 (Streptococcus): 2.18 µM (active)
- IC50 (Fatty acid synthase [10]): 18.2 µM (active)
- EC50 (Protein RecA): 4.6 µM (active)
- IC50 (Prothrombin): 93.6 µM (active)
- IC50 [11]: 33.7 µM (active)

Reference: ChEMBL document CHEMBL1201862, “PubChem BioAssay data set” (2004)
